This is an account of results in patent US8569267B2, “Tetracyclic tetrahydrofuran derivatives containing cyclic amine side chain” (Janssen Pharmaceutica, NV, priority 2005, dated 2013).

Assay [1] concerns the target T1, human Dopamine D2L receptor (Homo sapiens, UniProt P14416).
T1 construct: expressed in transfected cells; host or cells: CHO cells
Kind of assay: In vitro binding affinity for human D2L receptor ([3H]Spiperone binding). The following applies: human D2L receptor-transfected CHO cell membranes; for IC50: read-out: D2L pIC50 (converted). In outline:
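Membranes from CHO cells transfected with the receptor were incubated with [3H]Spiperone (diluted to 2 nmol/L before addition) and compound for 30 min at 37° C. Buffer was Tris-HCl, pH 7.7, with NaCl, CaCl2, MgCl2 and KCl, and non-specific binding was defined with 10^−6 mol/l Butaclamol. Bound radioactivity was collected by filtration, counted by scintillation, and competition curves calculated as percent specific binding.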

For assay [2], the target named is T2, human cloned 5-HT2A receptor, expressed in L929 cells (Homo sapiens, UniProt P28223).
T2 construct: expressed in transfected cells; host or cells: L929 cells
T2 sequence (P28223 whole entry): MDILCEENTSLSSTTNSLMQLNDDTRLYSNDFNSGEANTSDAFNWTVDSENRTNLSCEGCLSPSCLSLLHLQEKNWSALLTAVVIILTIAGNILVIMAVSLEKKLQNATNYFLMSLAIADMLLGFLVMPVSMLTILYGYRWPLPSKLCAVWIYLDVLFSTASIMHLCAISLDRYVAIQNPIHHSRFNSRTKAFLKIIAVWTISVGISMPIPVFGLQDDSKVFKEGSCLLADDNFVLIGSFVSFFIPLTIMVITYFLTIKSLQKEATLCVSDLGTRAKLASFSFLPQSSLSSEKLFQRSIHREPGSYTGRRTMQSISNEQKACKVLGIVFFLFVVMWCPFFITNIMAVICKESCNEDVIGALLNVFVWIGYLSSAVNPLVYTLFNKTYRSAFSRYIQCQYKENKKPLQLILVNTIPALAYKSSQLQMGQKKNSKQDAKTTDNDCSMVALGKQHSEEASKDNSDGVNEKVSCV
Kind of assay: In vitro binding affinity for 5-HT2A receptor ([125I]R91150 radioligand binding). As to conditions: human cloned 5-HT2A receptor in L929 cells, [125I]R91150; for IC50: read-out: 5-HT2A pIC50 (converted). The protocol: In Vitro Binding Affinity for 5-HT2A and 5-HT2C Receptors
The interaction of the compounds of Formula (I) with 5-HT2A and 5-HT2C receptors was assessed in in vitro radioligand binding experiments. […] During the incubation, the radioligands bind to the receptor. When equilibrium of binding is reached, the receptor bound radioactivity is separated from the non-bound radioactivity, and the receptor bound activity is counted. The interaction of the test compounds with the receptors is assessed in competition binding experiments. Various concentrations of the test compound are added to the incubation mixture containing the tissue preparation and the radioligand. Binding of the radioligand will be inhibited by the test compound in proportion to its binding affinity and its concentration. The affinities of the compounds for the 5-HT2 receptors were measured by means of radioligand binding studies conducted with: (a) human cloned 5-HT2A receptor, expressed in L929 cells using [^125I]R91150 as radioligand and (b) human cloned 5-HT2C receptor, expressed in CHO cells using [^3H]mesulergine as radioligand.

The target in assay [3] is T3, NET (norepinephrine transporter) (Rattus norvegicus, UniProt Q63380).
T3 construct: Cortex from rat brain was collected and homogenised; from tissue; host or cells: rat brain cortex
T3 sequence (Q63380 1-617): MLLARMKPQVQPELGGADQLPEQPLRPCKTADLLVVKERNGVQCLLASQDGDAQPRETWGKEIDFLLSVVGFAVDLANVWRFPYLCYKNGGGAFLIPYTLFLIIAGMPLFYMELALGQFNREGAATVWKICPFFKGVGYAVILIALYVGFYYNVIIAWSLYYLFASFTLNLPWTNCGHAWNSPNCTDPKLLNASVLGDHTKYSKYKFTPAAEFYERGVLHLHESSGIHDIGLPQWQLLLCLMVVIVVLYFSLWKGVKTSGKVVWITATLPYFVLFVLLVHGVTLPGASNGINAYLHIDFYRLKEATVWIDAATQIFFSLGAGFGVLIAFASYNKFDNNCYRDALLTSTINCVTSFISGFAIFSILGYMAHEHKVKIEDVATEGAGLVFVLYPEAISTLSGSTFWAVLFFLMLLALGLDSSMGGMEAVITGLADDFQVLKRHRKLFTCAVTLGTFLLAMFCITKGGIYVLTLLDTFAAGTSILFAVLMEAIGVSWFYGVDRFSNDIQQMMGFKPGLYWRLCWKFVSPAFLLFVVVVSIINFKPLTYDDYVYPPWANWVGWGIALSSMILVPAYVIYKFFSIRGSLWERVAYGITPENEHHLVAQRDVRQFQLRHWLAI
Kind of assay: In vitro determination of NET reuptake inhibition ([3H]Nixosetine binding, rat brain cortex). As to conditions: rat brain cortex; for IC50: read-out: NET pIC50 (converted). In a few lines:
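Rat cortex homogenised in Tris 50 mM, NaCl 120 mM, KCl 5 mM, pH 7.4 was used for competition binding against [3H]nisoxetine. Bound radioligand was collected by filtration on GF/B filters and counted by scintillation. Percentage specific binding and competition curves were derived.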

For assay [4], the target named is T4, human cloned 5-HT2C receptor, expressed in CHO cells (Homo sapiens, UniProt P28335).
T4 construct: expressed in transfected cells; host or cells: CHO cells
T4 sequence (P28335 33-458): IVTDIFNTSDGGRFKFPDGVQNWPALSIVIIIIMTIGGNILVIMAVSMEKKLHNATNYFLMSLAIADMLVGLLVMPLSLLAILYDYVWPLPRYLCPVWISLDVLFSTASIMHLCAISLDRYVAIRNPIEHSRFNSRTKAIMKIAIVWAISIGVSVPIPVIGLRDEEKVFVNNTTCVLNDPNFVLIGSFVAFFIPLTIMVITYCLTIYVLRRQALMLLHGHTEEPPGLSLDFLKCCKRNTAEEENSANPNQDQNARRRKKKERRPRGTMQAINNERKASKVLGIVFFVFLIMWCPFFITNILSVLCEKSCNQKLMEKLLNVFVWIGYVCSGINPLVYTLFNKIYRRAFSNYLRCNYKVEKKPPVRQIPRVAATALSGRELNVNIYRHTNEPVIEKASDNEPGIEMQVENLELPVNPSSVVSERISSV
Kind of assay: In vitro binding affinity for 5-HT2C receptor ([3H]mesulergine radioligand binding). The following applies: human cloned 5-HT2C receptor; for IC50: read-out: 5-HT2C pIC50 (converted). In a few lines:
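Competition radioligand binding: varying test-compound concentrations incubated with receptor preparation and radioligand to binding equilibrium. Bound radioactivity separated from free and counted; affinity inferred from concentration-dependent inhibition of radioligand binding.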

T1 sequence (P14416 whole entry): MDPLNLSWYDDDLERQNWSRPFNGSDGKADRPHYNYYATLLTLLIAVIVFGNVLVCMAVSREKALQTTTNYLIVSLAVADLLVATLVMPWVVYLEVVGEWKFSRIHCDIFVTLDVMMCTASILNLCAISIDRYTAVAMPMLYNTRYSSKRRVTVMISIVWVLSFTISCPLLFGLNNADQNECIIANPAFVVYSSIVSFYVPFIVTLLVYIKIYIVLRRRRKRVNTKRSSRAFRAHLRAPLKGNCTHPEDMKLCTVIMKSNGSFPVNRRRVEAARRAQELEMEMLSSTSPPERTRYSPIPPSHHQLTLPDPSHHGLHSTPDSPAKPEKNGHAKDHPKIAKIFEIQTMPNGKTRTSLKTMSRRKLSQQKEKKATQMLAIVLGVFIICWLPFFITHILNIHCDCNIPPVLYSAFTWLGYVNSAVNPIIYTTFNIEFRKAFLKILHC

On to `COc1ccccc1OC1CCN(CC2CC3c4ccccc4Cc4ccc(F)cc4C3O2)C1` (mixture of isomers) [Compound 32], for which the IC50 is 7.41 nM in assay [1], 2.19 nM in assay [2], 7.41 µM in assay [3] and 0.912 nM in assay [4].

On to `COc1ccc(OC2CCN(CC3CC4c5ccccc5Cc5ccc(F)cc5C4O3)C2)cc1` (mixture of isomers) [Compound 33], for which the IC50 in assay [1] was 7.94 nM; in assay [2], 6.17 nM; in assay [3], 4.9 µM; in assay [4], 2 nM.

As for `Fc1ccc2c(c1)C1OC(CN3CCC(Oc4ccccc4F)C3)CC1c1ccccc1C2` (mixture of isomers) [Compound 34], the IC50 in assay [1] was 10 nM; in assay [2] it was 7.24 nM; in assay [3] it was 6.17 µM; in assay [4], 0.427 nM.

For the molecule `Fc1ccc(OC2CCN(CC3CC4c5ccccc5Cc5ccc(F)cc5C4O3)C2)cc1` (mixture of isomers) [Compound 36], the IC50 was 21.9 nM in assay [1], 12.3 nM in assay [2], 4.07 µM in assay [3] and 4.68 nM in assay [4].

Take `Fc1ccc2c(c1)C1OC(CN3CCC(Oc4cccc(C(F)(F)F)c4)C3)CC1c1ccccc1C2` (mixture of isomers) [Compound 37]: the IC50 in assay [1] is 32.4 nM; in assay [2], 22.4 nM; in assay [3] it was > 10 µM; in assay [4] it was 7.94 nM.

For the molecule `COCC1CCCN1CC1CC2c3ccccc3Cc3ccc(F)cc3C2O1` (mixture of isomers) [Compound 38], the IC50 in assay [1] is 224 nM; in assay [2], 13.5 nM; in assay [3], 5.13 µM; in assay [4], 15.5 nM.

On to `OC1(c2ccc(F)cc2)CCN(CC2CC3c4ccccc4Cc4ccc(F)cc4C3O2)C1` (mixture of isomers) [Compound 41], for which the IC50 is 4.27 nM in assay [1], 1.82 nM in assay [2], 7.08 µM in assay [3] and 2.29 nM in assay [4].

For `OC(COCc1ccco1)CN1CCN(CC2CC3c4ccccc4Cc4ccc(F)cc4C3O2)CC1` (mixture of isomers) [Compound 55], the IC50 was 8.13 nM in assay [1], 2.69 nM in assay [2], 1.82 µM in assay [3] and 3.16 nM in assay [4].

Consider `OC(COc1ccc(F)cc1)CN1CCN(CC2CC3c4ccccc4Cc4ccc(F)cc4C3O2)CC1` (mixture of isomers) [Compound 57], for which the IC50 was 18.6 nM in assay [1], 7.24 nM in assay [2], > 10 µM in assay [3] and 17.8 nM in assay [4].

Turning to `O=C(C1CCCO1)N1CCN(CC2CC3c4ccccc4Cc4ccc(F)cc4C3O2)CC1` (mixture of isomers) [Compound 80], the IC50 in assay [1] was 44.7 nM; in assay [2], 1.07 nM; in assay [3], 3.72 µM; in assay [4] it was 16.6 nM.

On to `OCC1CN(CC2CC3c4ccccc4Cc4ccc(F)cc4C3O2)CCO1` (mixture of isomers) [Compound 128, [2R-(2aα, 3aα, 12bβ)]-(3′RS)-[4-(11-fluoro-3,3a,8,12b-tetrahydro-2H-1-oxa-dibenzo[e,h]azulen-2-ylmethyl)-morpholin-2-yl]-methanol.oxalate (1:1)], for which the IC50 in assay [1] was 18.6 nM; in assay [2] it was 4.37 nM; in assay [3], 2.63 µM; in assay [4], 11.7 nM.

On to `CN(CCO)CCC1CN(CC2CC3c4ccccc4Cc4ccc(F)cc4C3O2)CCO1` (mixture of isomers) [Compound 133], for which the IC50 in assay [1] was 355 nM; in assay [2], 49 nM; in assay [3] it was 0.933 µM; in assay [4], 34.7 nM.

In the case of `OCC1CCCCN1CC1CC2c3ccccc3Cc3ccc(F)cc3C2O1` (mixture of isomers) [Compound 146], the IC50 in assay [1] is 81.3 nM; in assay [2], 16.6 nM; in assay [3], > 10 µM; in assay [4] it was 11.5 nM.

As to `CCOC(=O)C1CCCCN1CC1CC2c3ccccc3Cc3ccc(F)cc3C2O1` (mixture of isomers) [Compound 158], the IC50 in assay [1] was 355 nM; in assay [2] it was 23.4 nM; in assay [3], > 10 µM; in assay [4], 33.1 nM.

`N#CCCC1CCCN(CC2CC3c4ccccc4Cc4ccc(F)cc4C3O2)C1` (mixture of isomers) [Compound 169]: the IC50 was 13.8 nM in assay [1], 3.16 nM in assay [2], 1.62 µM in assay [3] and 2.88 nM in assay [4].

Regarding `COC(=O)C(Cc1ccc(Cl)cc1)NC(=O)C1CCN(CC2CC3c4ccccc4Cc4ccc(F)cc4C3O2)CC1` (mixture of isomers) [Compound 184], the IC50 was 25.1 nM in assay [1], 1.41 nM in assay [2], 3.89 µM in assay [3] and 5.75 nM in assay [4].

As to `CCOC(=O)C1CCCCN1C(=O)C1CCN(CC2CC3c4ccccc4Cc4ccc(F)cc4C3O2)CC1` (mixture of isomers) [Compound 205], the IC50 in assay [1] is 12.6 nM; in assay [2], < 10 nM; in assay [3], 8.51 µM; in assay [4], 4.47 nM.

As to `CC1CN(CC2CC3c4ccccc4Cc4ccc(F)cc4C3O2)C(C)CN1.O=C(O)C(=O)O` (mixture of isomers) [Compound 280], the “D2L pIC50” value in assay [1] worked out at 5.40. Further, in assay [2], the “5-HT2A pIC50” value amounted to 6.53. In addition, the “NET pIC50” value in assay [3] was <5. Moreover, the “5-HT2C pIC50” value in assay [4] came to 6.53.

Turning to `OC1CCN(CC2CC3c4ccccc4Sc4ccc(F)cc4C3O2)C1` (racemic) [Compound 44], the IC50 in assay [1] is 10 nM; in assay [2], < 10 nM; in assay [3], 0.282 µM; in assay [4] it was 9.33 nM.

On to `CN1c2ccccc2C2CC(CN3CCC(O)C3)OC2c2ccccc21` (racemic) [Compound 263], for which the IC50 in assay [1] is 550 nM; in assay [2] it was 251 nM; in assay [3] it was 2.88 µM; in assay [4], 13.2 nM.

Consider `N#CC1CCCN(C[C@H]2C[C@@H]3c4ccccc4Cc4ccc(F)cc4[C@@H]3O2)CC1.O=C(O)C(=O)O.O=C(O)C(=O)O` (mixture of isomers) [Compound 268], for which the “D2L pIC50” value in assay [1] turned out to be 7.92. The “5-HT2A pIC50” value in assay [2] is recorded as 8.52. For the same molecule, in assay [3], the “NET pIC50” value is on record as <5. In addition, the “5-HT2C pIC50” value in assay [4] is listed as 8.24.

Consider `O=C(O)C(=O)O.OC1CCN(CC2CC3c4ccccc4Oc4ccc(F)cc4C3O2)CC1` (racemic) [Compound 282], for which the “D2L pIC50” value in assay [1] is recorded as 6.10. Moreover, the “5-HT2A pIC50” value in assay [2] is 7.00. In assay [3], the “NET pIC50” value is <5. Further, the “5-HT2C pIC50” value in assay [4] is 6.93.

Consider `COc1ccc2c(c1)C1OC(CN3CCC(O)CC3)CC1c1ccccc1O2.O=C(O)C(=O)O` (racemic) [Compound 287], for which, in assay [1], the “D2L pIC50” value is listed as 6.17. In addition, the “5-HT2A pIC50” value in assay [2] is recorded as 7.62. For the same molecule, the “NET pIC50” value in assay [3] is given as <5. Also, the “5-HT2C pIC50” value in assay [4] came to 6.54.

Consider `COc1ccc2c(c1)C1OC(CN3CCC(O)CC3)CC1c1ccccc1O2.O=C(O)C(=O)O` (racemic) [Compound 288], for which the “D2L pIC50” value in assay [1] stood at 6.08. Besides, in assay [2], the “5-HT2A pIC50” value was found to be 7.18. Further, in assay [3], the “NET pIC50” value is listed as <5. Besides, the “5-HT2C pIC50” value in assay [4] came to 6.71.

With `OC1CCN(C[C@@H]2C[C@@H]3c4ccccc4Sc4ccc(F)cc4[C@H]3O2)C1` (relative stereo) [Compound 43], the IC50 is 57.5 nM in assay [1], < 10 nM in assay [2], 1.7 µM in assay [3] and 1.29 nM in assay [4].
